How the values were obtained:
CYP11B2 [1] = settings: increasing adrenodoxin up to 40-fold; ref [8]; cited from earlier work
CYP11B2 [2] = assay: CYP11B2 substrate binding with varying adrenodoxin; set-up: species or system human; settings: over 40-fold range of excess adrenodoxin
[3] = biological target: T1, adrenodoxin-CYP11B1 fusion enzyme (Homo sapiens, UniProt P10109+P15538); assay: Spectral ligand binding titration of the adrenodoxin-CYP11B1 fusion enzyme
T1 sequence (P10109+P15538 with tags, fused parts or gaps): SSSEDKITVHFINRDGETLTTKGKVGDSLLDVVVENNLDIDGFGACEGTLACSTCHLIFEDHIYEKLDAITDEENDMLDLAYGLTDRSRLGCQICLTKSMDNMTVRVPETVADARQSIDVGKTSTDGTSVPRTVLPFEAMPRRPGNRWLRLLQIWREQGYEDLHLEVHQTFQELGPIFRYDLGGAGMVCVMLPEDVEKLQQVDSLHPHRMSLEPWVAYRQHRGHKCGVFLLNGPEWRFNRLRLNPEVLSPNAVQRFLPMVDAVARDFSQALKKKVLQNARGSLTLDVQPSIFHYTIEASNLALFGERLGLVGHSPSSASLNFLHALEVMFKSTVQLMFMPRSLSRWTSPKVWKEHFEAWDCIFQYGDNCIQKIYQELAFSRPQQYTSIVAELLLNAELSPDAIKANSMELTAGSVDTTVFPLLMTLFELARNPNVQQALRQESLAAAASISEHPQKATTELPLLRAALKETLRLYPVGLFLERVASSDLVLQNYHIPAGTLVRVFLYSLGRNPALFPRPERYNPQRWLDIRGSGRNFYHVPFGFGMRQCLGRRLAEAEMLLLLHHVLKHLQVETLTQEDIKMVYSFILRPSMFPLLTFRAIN

human CYP11B1 [4] = biological target: T2, human CYP11B1 (Homo sapiens, UniProt P15538); assay: Spectral ligand binding titration; settings: for Kd: dissociation constant Kd, 1 μM CYP11B1; for Amax: 0.2 μM CYP11B1, 5 cm cuvettes
T2 sequence (P15538 25-503): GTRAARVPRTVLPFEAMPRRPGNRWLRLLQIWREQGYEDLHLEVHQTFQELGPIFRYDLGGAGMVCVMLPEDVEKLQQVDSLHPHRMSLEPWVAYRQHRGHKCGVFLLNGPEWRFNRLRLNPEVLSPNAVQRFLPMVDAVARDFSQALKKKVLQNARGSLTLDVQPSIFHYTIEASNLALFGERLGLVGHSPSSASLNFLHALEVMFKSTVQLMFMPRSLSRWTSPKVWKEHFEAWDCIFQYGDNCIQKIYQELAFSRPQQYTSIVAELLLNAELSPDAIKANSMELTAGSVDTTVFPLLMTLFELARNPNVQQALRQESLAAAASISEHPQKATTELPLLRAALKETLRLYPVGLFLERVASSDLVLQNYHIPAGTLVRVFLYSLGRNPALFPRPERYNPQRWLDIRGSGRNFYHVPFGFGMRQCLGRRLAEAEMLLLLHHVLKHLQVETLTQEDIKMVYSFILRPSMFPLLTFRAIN

human CYP11B1 [5] = biological target: T2, human CYP11B1; format: biochemical; settings: 1:1 condition to 1:40 excess adrenodoxin

For C[C@]12CC[C@H]3[C@@H](CCC4=CC(=O)CC[C@@]43C)[C@@H]1CC[C@@H]2C(=O)CO [11-deoxycorticosterone], the “fold effect on Km for CYP11B2” value (CYP11B2 [1]) is listed as 1.6 fold and the “fold increase of Amax/Kd for CYP11B2” value (CYP11B2 [2]) is listed as “more than 3 fold”.
For C[C@]12CCC(=O)C=C1CC[C@@H]1[C@@H]2CC[C@@]2(C)[C@H]1CC[C@]2(O)C(=O)CO [11-deoxycortisol], the “fold increase of Amax/Kd (binding efficiency)” value ([3]; adrenodoxin fused) was “more than 11 fold”, the “fold difference of Kd, fusion vs same 1:1 ratio of non-fused proteins” value ([3]; printed as higher) was ~ 5 fold and the Kd (human CYP11B1 [4]; 10-fold excess adrenodoxin) was 12.2 µM. The Kd (human CYP11B1 [4]; 40-fold excess adrenodoxin) was 7.3 µM, the Kd (human CYP11B1 [4]; equimolar adrenodoxin (1 μM)) was 20.8 µM and the Kd (human CYP11B1 [4]; no adrenodoxin) was 17 µM. The “fold increase in catalytic efficiency (kcat/Km)” value (human CYP11B1 [5]) was “greater than 11 fold”.
For N#Cc1ccc([C@H]2CCc3cncn32)c(F)c1 [LCI699, osilodrostat], the Amax (human CYP11B1 [4]; 1:1 CYP11B1 to adrenodoxin) was 0.015 and the Amax (human CYP11B1 [4]; CYP11B1 alone) was 0.006.

— publication PMC9907956 (Journal of inorganic biochemistry, 2022)
